Source: the NIST ThermoML archive (doi:10.1016/j.jct.2012.08.023)
Numbers after ± are expanded uncertainties.

Assay: mn = molality of the nth substance listed, in mol/kg
Conditions: 101.3 kPa, Liquid; for speed of sound: Single path-length method; for mass density: Vibrating tube method

CCCCn1cc[n+](C)c1.[Br-] [1-butyl-3-methylimidazolium bromide] + O
Conditions	mass density, 288.15 K [kg/m3]	mass density, 298.15 K [kg/m3]	mass density, 308.15 K [kg/m3]	speed of sound, 288.15 K [m/s]	speed of sound, 298.15 K [m/s]	speed of sound, 308.15 K [m/s]
m1 = 0.0915	996.409 ± 0.31	996.531 ± 0.31	991.528 ± 0.31	1490.7 ± 1.4	1516.7 ± 1.4	1535.5 ± 1.4
m1 = 0.0969	1001.56 ± 0.52	999.293 ± 0.52	996.365 ± 0.52	1489.1 ± 1.4	1517 ± 1.4	1537.9 ± 1.4
m1 = 0.1014	989.502 ± 0.78	997.101 ± 0.79	992.565 ± 0.78	1490.9 ± 1.7	1520.2 ± 1.7	1540.2 ± 1.7
m1 = 0.2656	1010.44 ± 0.81	1007.45 ± 0.8	1005.51 ± 0.8	1511.6 ± 1.7	1536.2 ± 1.7	1554.5 ± 1.7
m1 = 0.2803	1007.11 ± 0.32	1005.82 ± 0.32	1002.41 ± 0.32	1512.3 ± 1.4	1536.8 ± 1.4	1555.3 ± 1.4
m1 = 0.2869	1010.49 ± 0.54	1005.51 ± 0.53	1001.76 ± 0.52	1512.3 ± 1.4	1536.8 ± 1.4	1555.3 ± 1.4

COCCOCCO [2-(2-methoxyethoxy)ethanol] + O
Conditions	mass density, 288.15 K [kg/m3]	mass density, 298.15 K [kg/m3]	mass density, 308.15 K [kg/m3]	speed of sound, 288.15 K [m/s]	speed of sound, 298.15 K [m/s]	speed of sound, 308.15 K [m/s]
m1 = 0.1113	999.888 ± 0.52	997.716 ± 0.52	994.536 ± 0.52	1477.1 ± 1.4	1505.1 ± 1.4	1526.8 ± 1.4
m1 = 0.1346	1000.02 ± 0.52	997.84 ± 0.52	994.655 ± 0.52	1480.4 ± 1.4	1508.5 ± 1.4	1529.1 ± 1.4
m1 = 0.3285	1001.11 ± 0.52	998.835 ± 0.52	995.615 ± 0.52	1494.2 ± 1.4	1519.7 ± 1.4	1538.8 ± 1.4
m1 = 0.4005	1001.49 ± 0.52	999.182 ± 0.52	995.953 ± 0.52	1498.2 ± 1.4	1523.4 ± 1.4	1541.4 ± 1.4
m1 = 0.62	1002.6 ± 0.52	1000.22 ± 0.52	996.952 ± 0.52	1516.3 ± 1.4	1537.8 ± 1.4	1553.6 ± 1.4
m1 = 0.7114	1003.02 ± 0.53	1000.62 ± 0.52	997.341 ± 0.52	1523.8 ± 1.4	1544.5 ± 1.4	1558.8 ± 1.4
m1 = 0.9906	1004.26 ± 0.53	1001.81 ± 0.52	998.476 ± 0.53	1539.6 ± 1.4	1556.8 ± 1.4	1569.1 ± 1.4
m1 = 1.052	1004.52 ± 0.53	1002.03 ± 0.52	993.955 ± 0.52	1548 ± 1.5	1497.7 ± 1.4	1574.7 ± 1.6

COCCOCCOCCO [2-[2-(2-methoxyethoxy)ethoxy]ethanol] + O
Conditions	mass density, 288.15 K [kg/m3]	mass density, 298.15 K [kg/m3]	mass density, 308.15 K [kg/m3]	speed of sound, 288.15 K [m/s]	speed of sound, 298.15 K [m/s]	speed of sound, 308.15 K [m/s]
m1 = 0.0992	1000.76 ± 0.79	998.595 ± 0.79	995.371 ± 0.78	1476.9 ± 1.7	1505.2 ± 1.7	1526.8 ± 1.7
m1 = 0.2191	1002.54 ± 0.79	1000.32 ± 0.79	997.022 ± 0.79	1490.1 ± 1.7	1516.8 ± 1.7	1535.9 ± 1.7
m1 = 0.4289	1005.5 ± 0.8	1003.2 ± 0.79	999.755 ± 0.79	1510.7 ± 1.7	1533 ± 1.7	1549.8 ± 1.7
m1 = 0.5088	1006.57 ± 0.8	1004.24 ± 0.8	1000.75 ± 0.79	1517.7 ± 1.7	1539.4 ± 1.7	1554.7 ± 1.7
m1 = 0.5825	1007.53 ± 0.8	1005.17 ± 0.8	1001.64 ± 0.79	1525 ± 1.7	1544.9 ± 1.7	1559.5 ± 1.7
m1 = 0.7077	1009.12 ± 0.81	1006.71 ± 0.8	1003.1 ± 0.79	1537.2 ± 1.7	1555.8 ± 1.7	1568.3 ± 1.7
m1 = 0.7956	1010.2 ± 0.81	1007.75 ± 0.8	1004.09 ± 0.8	1543.9 ± 1.7	1560.4 ± 1.7	1572.2 ± 1.7
m1 = 0.9789	1012.35 ± 0.81	1009.85 ± 0.81	1006.07 ± 0.8	1467.3 ± 2	1570.5 ± 1.8	1580 ± 1.7

COCCO [2-methoxyethan-1-ol] + O
Conditions	mass density, 288.15 K [kg/m3]	mass density, 298.15 K [kg/m3]	mass density, 308.15 K [kg/m3]	speed of sound, 288.15 K [m/s]	speed of sound, 298.15 K [m/s]	speed of sound, 308.15 K [m/s]
m1 = 0.1766	999.359 ± 0.31	997.221 ± 0.31	994.075 ± 0.31	1475.3 ± 1.4	1504.9 ± 1.4	1526.1 ± 1.4
m1 = 0.3377	999.461 ± 0.31	997.304 ± 0.31	994.169 ± 0.31	1487.3 ± 1.4	1511.2 ± 1.4	1531.6 ± 1.4
m1 = 0.3987	999.495 ± 0.31	997.331 ± 0.31	994.202 ± 0.31	1486.9 ± 1.4	1513.8 ± 1.4	1533.1 ± 1.4
m1 = 0.5117	999.548 ± 0.31	997.377 ± 0.31	994.256 ± 0.31	1492.9 ± 1.4	1518 ± 1.4	1537 ± 1.4
m1 = 0.6355	999.593 ± 0.31	997.421 ± 0.31	994.305 ± 0.31	1498.1 ± 1.4	1522.9 ± 1.4	1540.5 ± 1.4
m1 = 0.7947	999.638 ± 0.31	997.462 ± 0.31	994.361 ± 0.31	1506.8 ± 1.4	1529.3 ± 1.4	1546 ± 1.4
m1 = 1.012	999.666 ± 0.31	997.507 ± 0.31	994.412 ± 0.31	1518.1 ± 1.4	1539.1 ± 1.4	1553.7 ± 1.4
